Measurements as given in patent publication US20250011265A1, “COMPOSITIONS AND METHODS FOR PRODUCTION OF ANTIMICROBIAL AGENTS FROM BIO-RENEWABLE FEEDSTOCKS” (SOLUGEN, INC., priority 2022, published 2025).
In brackets after ≈: the same amount, converted by molar mass.

What was measured:
[1] = tested on: General Wild Strain Bacteria (Pseudomonas aeruginosa and Enterobacter aggolomerans); assay: Microtiter MIC study, general aerobic bacteria; assay type: cell-based
Protocol: (§1) All three different heat incubated GDA samples were tested as antimicrobial agents with several different industrially relevant bacteria. The General Aerobic Bacteria isolated and used for this testing were identified as Pseudomonas aeruginosa and Enterobacter aggolomerans. Wild strain Sulfate Reducing Bacteria and Acid Producing Bacteria isolated from the produced fluids was also used. They were placed in a microtiter plate, where a high throughput test can be performed to determine MIC (minimum inhibitor concentration). Samples were tested at the following doses (1000, 500, 250, 125, 62.5, 31.2, 15.6, 7.8, 3.9, and 1.95 ppm) and concentration was calculated based on the initial GDA concentration (15 w/v %).
(§2) The antimicrobial testing results shown in FIG. 13 summarizes the MIC of each sample for different bacteria. The MIC is determined after 24 hours of incubation for the bacterial plates.

[2] = tested on: SRB (Sulfate Reducing Bacteria); assay: Microtiter MIC study, sulfate reducing bacteria; assay type: cell-based, Wild strain Sulfate Reducing Bacteria; conditions: 24 hours incubation; concentration based on initial GDA concentration (15 w/v %)
Protocol: as §1, §2

[3] = tested on: APB (Acid Producing Bacteria); assay: Microtiter MIC study, acid producing bacteria; assay type: cell-based; conditions: 24 hours incubation; concentration based on initial GDA concentration (15 w/v %)
Protocol: as §1, §2

| Compound | antimicrobial activity ([1]; inferred from Sample C result, all three bacteria tested) | MIC ([1]; Pseudomonas aeruginosa, 24 hours incubation, concentration based on initial GDA concentration (15 w/v %)) | MIC, SRB (Sulfate Reducing Bacteria) [2] | MIC [3] |
| --- | --- | --- | --- | --- |
| Oc1ccc(O)c(O)c1O (single isomer, unassigned) [1,2,3,4-tetrahydroxybenzene] | good antimicrobial activity | – | – | – |
| O=CCCCC=O [Glutaraldehyde - 50%, Glutaraldehyde] | – | 1000 µg/mL (≈ 9.99 mM) | 500 ppm | 500 µg/mL (≈ 4.99 mM) |
